# Counter-ions that a name gives are not always drawn.
# Test system: morning sickness
# Assay: Doctor survey: composition compared with other morning sickness remedies tried during the same pregnancy
# Format: in vivo, pregnant patients
# Conditions: for Patients' preference, composition versus the named remedy: overall, in words
# Description: Doctors across the United States were each sent four bottles of the composition described herein, and were invited to allow their pregnant patients to try the composition as a remedy for morning sickness. The same doctors were also sent a survey inquiring about the patients'experience with the composition, the other remedies used, and how the composition disclosed herein compared with the other remedies.
# The survey also asked about other known morning sickness remedies. […] Some of the other remedies included Reglan® (metochlopramide, commercially available from Robins Co., Richmond, Va.), Emetrol® (dextrose, levulose, phosphoric acid, commercially available from Pfizer, Inc., New York, N.Y.), Mylanta® (calcium carbonate, magnesium hydroxide, commercially available from Johnson & Johnson, Merck Consumer Pharmaceuticals Co., Fort Washington, Pa.), Premesis Rx® (calcium carbonate, vitamin B12, folic acid, vitamin B6, commercially available from KV Pharmaceutical Co., St. Louis, Mo.), Compazine® (prochlorperazine, commercially available from SmithKline Beecham, Philadelphia, Pa.), and meclizine (commercially available under the tradename Antivert® from Pfizer, Inc., New York, N.Y.).
# Regardless of whether they tried one or more remedies besides the disclosed composition, each doctor was asked, for each patient: did the composition work 1) better than other products or combinations, 2) better than some, but not as well as others, or 3) not as well as other products or combinations.
# Another question in the survey asked the doctors what products each patient took besides the composition, and then whether the composition worked 1) better than other products or combinations, 2) better than some, but not as well as others, or 3) not as well as other products or combinations.
# [1] = composition versus the named remedy, the two taken alone or with other remedies
# [2] = patients who tried only the named remedy or combination besides the composition
# [3] = composition versus the named remedy, the two taken alone or with other remedies, hydrochloride
Compound,Percent of Patients for whom the Composition Did Not Work as Well [1],Percent of Patients for whom the Composition worked Better [1],Patients for whom the composition definitely worked better than the remedy/remedies tried in addition [2],"Patients' preference, composition versus the named remedy",other results
"Cc1cccc(CN2CCN(C(c3ccccc3)c3ccc(Cl)cc3)CC2)c1 (stereo not drawn) [Meclizine ®, meclizine]",0%,100%,,,
"CN1CCN(CCCN2c3ccccc3Sc3ccc(Cl)cc32)CC1 [Compazine ®, prochlorperazine]",29%,43%,better for 3 patients,,
"Cc1ncc(CO)c(CO)c1O.Cl [Vitamin B6, pyridoxine hydrochloride]",,,,like the composition better,Patients for whom the composition definitely worked better than the remedy/remedies tried in addition (in vivo): better for 7 patients; Percent of Patients for whom the Composition Did Not Work as Well (in vivo): 11%
"CC(CN1c2ccccc2Sc2ccccc21)N(C)C (stereo not drawn) [Promethazine ®, Promethazine]",100%,0%,,,
"CCN(CC)CCNC(=O)c1cc(Cl)c(N)cc1OC [Reglan ®, metochlopramide]",60%,0%,,,
"CC(CN1c2ccccc2Sc2ccccc21)N(C)C (stereo not drawn) [Phenergan ®, promethazine hydrochloride]",,,better for 4 patients,prefer,Percent of Patients for whom the Composition Did Not Work as Well [3]: 32%; Percent of Patients for whom the Composition worked Better [3]: 40%
"Cc1nccn1CC1CCc2c(c3ccccc3n2C)C1=O (stereo not drawn) [Zofran ®, ondansetron hydrochloride]",,36%,better for 5 patients,prefer,"Percent of Patients for whom the Composition Did Not Work as Well [3]: 42%; Percent of Patients for whom the Composition Did Not Work as Well (composition versus the named remedy, the two taken alone or with other remedies, listed as Zofran®, hydrochloride): at least 36%"

# Source: patent publication US20070048367A1, “Herbal composition for treating morning sickness” (MOM Enterprises, Inc., priority 2005, published 2007)
